# Measured values as given in US7803815B2, “Indol-3-yl-corbonyl-piperidin-benzoimidazol derivatives” (Hoffmann-La Roche Inc., priority 2005, dated 2010).
# Biological target: T1, human V1a receptor (Homo sapiens, UniProt P37288)
# T1 construct: expressed in transfected cells; host or cells: HEK293 cells, transiently transfected; membrane preparation
# Experiment: human V1a receptor binding, 3H-Vasopressin SPA on membranes of transfected HEK293 cells
# Conditions: displacement of 4 nM 3H-Vasopressin; HEK293 cell membranes; 1 h at room temperature; Ki from IC50 by the Cheng-Prussoff equation
# Procedure: The human V1a receptor was cloned by RT-PCR from total human liver RNA. The coding sequence was subcloned in an expression vector after sequencing to confirm the identity of the amplified sequence. […] Cell membranes were prepared from HEK293 cells transiently transfected with the expression vector and grown in 20 liter fermenters with the following protocol.
# 50 g of cells are resuspended in 30 ml freshly prepared ice cold Lysis buffer (50 mM HEPES, 1 mM EDTA, 10 mM MgCl2 adjusted to pH=7.4+ complete cocktail of protease inhibitor (Roche Diagnostics)). Homogenized with Polytron for 1 min and sonicated on ice for 2×2 minutes at 80% intensity (Vibracell sonicator). The preparation is centrifuged 20 min at 500 g at 4° C., the pellet is discarded, and the supernatant centrifuged 1 hour at 43,000 g at 4° C. (19,000 rpm). The pellet is resuspended in 12.5 ml Lysis buffer+12.5 ml Sucrose 20% and homogenized using a Polytron for 1-2 min. The protein concentration is determined by the Bradford method, and aliquots are stored at −80° C. until use. For binding studies 60 mg Yttrium silicate SPA beads (Amersham) are mixed with an aliquot of membrane in binding buffer (50 mM Tris, 120 mM NaCl, 5 mM, KCl, 2 mM CaCl2, 10 mM MgCl2) for 15 minutes with mixing. 50 ul of bead/membrane mixture is then added to each well of a 96 well plate, followed by 50 ul of 4 nM 3H-Vasopressin (American Radiolabeled Chemicals). For total binding measurement, 100 ul of binding buffer are added to the respective wells, for non-specific binding 100 ul of […] cold vasopressin and for compound testing 100 ul of a serial dilution of each compound in 2% DMSO. The plate is incubated 1 h at room temperature, centrifuged 1 min at 1000 g and counted on a Packard Top-Count. Non-specific binding counts are subtracted from each well, and data is normalized to the maximum specific binding set at 100%. To calculate an IC 50, the curve is fitted using a non-linear regression model (XLfit), and the Ki is calculated using the Cheng-Prussoff equation.
# T1 sequence (P37288 whole entry): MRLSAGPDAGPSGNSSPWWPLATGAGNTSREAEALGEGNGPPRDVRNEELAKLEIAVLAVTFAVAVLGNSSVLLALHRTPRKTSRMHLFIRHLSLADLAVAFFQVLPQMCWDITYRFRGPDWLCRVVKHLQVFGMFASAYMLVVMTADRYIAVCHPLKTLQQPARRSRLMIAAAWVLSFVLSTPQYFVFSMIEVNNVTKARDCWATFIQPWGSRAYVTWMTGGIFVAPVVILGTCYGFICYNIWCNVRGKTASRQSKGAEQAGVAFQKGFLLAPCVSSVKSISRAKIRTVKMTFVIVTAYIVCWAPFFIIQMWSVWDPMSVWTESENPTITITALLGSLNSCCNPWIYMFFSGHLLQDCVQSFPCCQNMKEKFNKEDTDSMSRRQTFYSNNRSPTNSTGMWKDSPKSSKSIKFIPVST
row,Structure (SMILES),Ki
1,"Cc1c(C(=O)N2CCC(n3c(N4CCOCC4)nc4ccccc43)CC2)c2ccccc2n1Cc1ccccc1 [Example 3, (1-Benzyl-2-methyl-1H-indol-3-yl)-[4-(2-morpholin-4-yl-benzoimidazol-1-yl)-piperidin-1-yl]-methanone]",18 nM
2,"O=C(Cn1cc(C(=O)N2CCC(n3c(=O)[nH]c4ccccc43)CC2)c2ccc(Cl)cc21)c1ccccc1F [Example 38, 1-(1-{6-Chloro-1-[2-(2-fluoro-phenyl)-2-oxo-ethyl]-1H-indole-3-carbonyl}-piperidin-4-yl)-1,3-dihydro-benzoimidazol-2-one]",2 nM
3,"Cc1c(C(=O)N2CCC(n3c(Cl)nc4ccccc43)CC2)c2ccccc2n1Cc1ccccc1 [Example 1, (1-Benzyl-2-methyl-1H-indol-3-yl)-[4-(2-chloro-benzoimidazol-1-yl)-piperidin-1-yl]-methanone]",45 nM
4,"O=C(c1cn(Cc2cc(F)cc(F)c2)c2cc(Cl)ccc12)N1CCC(n2c(=O)[nH]c3ccccc32)CC1 [Example 33, 1-{1-[6-Chloro-1-(3,5-difluoro-benzyl)-1H-indole-3-carbonyl]-piperidin-4-yl}-1,3-dihydro-benzoimidazol-2-one]",15 nM
5,"CC(C)n1cc(C(=O)N2CCC(n3c(=O)[nH]c4ccccc43)CC2)c2ccccc21 [Example 14, 1-[1-(1-Isopropyl-1H-indole-3-carbonyl)-piperidin-4-yl]-1,3-dihydro-benzoimidazol-2-one]",32 nM
6,"CC(C)n1cc(C(=O)N2CCC(n3c(=O)[nH]c4ccccc43)CC2)c2ccc(Cl)cc21 [Example 13, 1-[1-(6-Chloro-1-isopropyl-1H-indole-3-carbonyl)-piperidin-4-yl]-1,3-dihydro-benzoimidazol-2-one]",2 nM

# The remaining lines, values ahead:
row,Ki,Structure (SMILES)
1,62 nM,"CCN(CC)C(=O)Cn1cc(C(=O)N2CCC(n3c(=O)n(CC(=O)N(CC)CC)c4ccccc43)CC2)c2ccc(Cl)cc21 [Example 43, 2-{6-Chloro-3-[4-(3-diethylcarbamoylmethyl-2-oxo-2,3-dihydro-benzoimidazol-1-yl)-piperidine-1-carbonyl]-indol-1-yl}-N,N-diethyl-acetamide]"
2,0.7 nM,"CN(C)CCn1cc(C(=O)N2CCC(n3c(=O)[nH]c4ccccc43)CC2)c2ccc(Cl)cc21 [Example 26, 1-{1-[6-Chloro-1-(2-dimethylamino-ethyl)-1H-indole-3-carbonyl]-piperidin-4-yl}-1,3-dihydro-benzoimidazol-2-one]"
3,11 nM,"CCC(C)C(=O)c1[nH]c2ccccc2c1C(=O)N1CCC(n2c(=O)[nH]c3ccccc32)CC1 (stereo not shown) [Example 22, 1-{1-[2-(2-Methyl-butyryl)-1H-indole-3-carbonyl]-piperidin-4-yl}-1,3-dihydro-benzoimidazol-2-one]"
4,15 nM,"O=C(c1cn(C(=O)c2cc(F)cc(F)c2)c2cc(Cl)ccc12)N1CCC(n2c(=O)[nH]c3ccccc32)CC1 [Example 37, 1-{1-[6-Chloro-1-(3,5-difluoro-benzoyl)-1H-indole-3-carbonyl]-piperidin-4-yl}-1,3-dihydro-benzoimidazol-2-one]"
5,20 nM,"COc1ccc2c(C(=O)N3CCC(n4c(=O)[nH]c5ccccc54)CC3)cn(C(C)C)c2c1 [Example 11, 1-[1-(1-Isopropyl-6-methoxy-1H-indole-3-carbonyl)-piperidin-4-yl]-1,3-dihydro-benzoimidazol-2-one]"
6,13 nM,"O=C(c1cn(-c2cc(F)cc(F)c2)c2cc(Cl)ccc12)N1CCC(n2c(=O)[nH]c3ccccc32)CC1 [Example 40, 1-{1-[6-Chloro-1-(3,5-difluoro-phenyl)-1H-indole-3-carbonyl]-piperidin-4-yl}-1,3-dihydro-benzoimidazol-2-one]"
7,5 nM,"O=C(Cn1cc(C(=O)N2CCC(n3c(=O)[nH]c4ccccc43)CC2)c2ccc(Cl)cc21)c1cc(F)ccc1F [Example 35, 1-(1-{6-Chloro-1-[2-(2,5-difluoro-phenyl)-2-oxo-ethyl]-1H-indole-3-carbonyl}-piperidin-4-yl)-1,3-dihydro-benzoimidazol-2-one]"
